In patent publication US4935438A, “Dopamine-β-hydroxylase inhibitors” (SmithKline Beckman Corporation, priority 1987, dated 1990):

Assays:
[1] = molecular target: T1, DBH (Homo sapiens, UniProt P09172); conditions: cited from earlier work; for DBH inhibition: literature report; for mode of DBH inhibition: literature
T1 sequence (P09172 1-617): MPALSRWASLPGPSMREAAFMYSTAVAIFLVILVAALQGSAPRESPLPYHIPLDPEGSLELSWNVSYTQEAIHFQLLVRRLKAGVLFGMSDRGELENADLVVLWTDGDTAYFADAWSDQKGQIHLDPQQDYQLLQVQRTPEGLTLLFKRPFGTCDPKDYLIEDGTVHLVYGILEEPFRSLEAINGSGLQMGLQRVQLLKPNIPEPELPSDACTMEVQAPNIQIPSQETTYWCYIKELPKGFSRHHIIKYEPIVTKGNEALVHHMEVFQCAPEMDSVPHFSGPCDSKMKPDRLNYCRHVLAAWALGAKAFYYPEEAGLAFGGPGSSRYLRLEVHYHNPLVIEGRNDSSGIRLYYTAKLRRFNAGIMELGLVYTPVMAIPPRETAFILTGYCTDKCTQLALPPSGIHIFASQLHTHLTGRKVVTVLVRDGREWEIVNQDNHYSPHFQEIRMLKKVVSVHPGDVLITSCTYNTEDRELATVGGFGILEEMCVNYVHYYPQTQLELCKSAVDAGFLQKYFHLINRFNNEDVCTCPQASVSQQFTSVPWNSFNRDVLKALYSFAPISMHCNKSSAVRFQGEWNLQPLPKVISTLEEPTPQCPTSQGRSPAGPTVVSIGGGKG

[2] = tested on: Spontaneously hypertensive rats; assay: mean arterial blood pressure in spontaneously hypertensive rats; format: in vivo, rat; conditions: 50 mg/kg intraperitoneally, vs vehicle treated controls
Experimental: Spontaneously hypertensive rats were treated with 2-(carboxymethylthio)-1-(3,5-difluorobenzyl)imidazole at a dose of 50 mg/kg intraperitoneally, and mean arterial blood pressure was monitored for four hours using an indwelling cannula in the femoral artery. […] The maximal blood pressure reduction was approximately 43 mmHg.

CCCCc1ccc(C(N)=O)nc1 [Bupicomide, 5(n-butyl)picolinamine]
DBH inhibition [1]: DBH inhibitor

O=C(O)CSc1nccn1Cc1cc(F)cc(F)c1 [2-(Carboxymethylthio)-1-(3,5-difluorobenzyl)imidazole]
maximal blood pressure reduction ([2]; monitored for four hours): approximately 43 mmHg
time blood pressure remained significantly reduced ([2]; monitored for four hours): 4 h
time to significant blood pressure reductions following treatment [2]: ≤ 30 min

O=C(O)c1ccc(CCC(Br)CBr)cn1 (stereo not drawn) [5-(3,4-dibromobutyl)picolinic acid]
DBH inhibition [1]: DBH inhibitors

NOCc1ccccc1 [Benzyloxyamine]
mode of DBH inhibition [1]: apparently act as competitive inhibitors

O=C(O)c1ccc(CCCCCl)cn1 [5-(4-chlorobutyl) picolinic acid]
DBH inhibition [1]: inhibit DBH

CN(C)C(=S)SCc1ccc(C(=O)O)nc1 [5-(dimethyldithiocarbamoylmethyl)picolinic acid]
DBH inhibition [1]: DBH inhibitors

NNCc1ccccc1 [benzylhydrazine]
mode of DBH inhibition [1]: apparently act as competitive inhibitors
